# Source: ChEMBL document CHEMBL5120941 (ACS Med Chem Lett, 2022)
# Assays:
# [1] = AUC (0 to 24 hrs) in Sprague-Dawley rat at 10 mg/kg, iv by HLPC-MS/MS analysis; type: ADME, organism-based; set-up: time < 24 hr, dose 10 mg/kg, route iv; conditions: in vivo
# [2] = test system: Staphylococcus aureus; assay: Antibacterial activity against Staphylococcus aureus ATCC 19636 infected ICR mouse septicemia model assessed as increase in animal's survival rate administered iv at 1 hr post-infection and measured after 48 hrs; type: functional
# [3] = Aqueous solubility of the compound in deionized water at 25 degC; type: physicochemical
# [4] = test system: Staphylococcus aureus; assay: Antibacterial activity against Staphylococcus aureus ATCC 19636 infected Sprague-Dawley rat peritonitis model assessed as increase in animal's survival rate administered iv at 1 hr post-infection and measured after 48 hrs; type: functional
smiles,measurement,setting,value
O=C1C=CN(c2c(F)cc(N3C[C@H](CNc4ccon4)OC3=O)c(F)c2F)CC1 [CONTEZOLID],AUC(0-t) at 24 h,[1],25400 ng·h/mL
same,ED50,[2],4.7 mg/kg
same,solubility,[3],200 µg/mL
same,ED50,[4],10.3 mg/kg
